Test results taken from patent EP0405506A1, “Tetrapeptide type-B CCK receptor ligands” (ABBOTT LABORATORIES, priority 1989, dated 1991).
Read-outs that look alike come from different tables or passages of the source. Square brackets hold non-standard residues; d marks the D form. Peptide text beside a SMILES is read from it. * marks the point of attachment. Ala(1H-tetrazol-5-yl) = N[C@@H](Cc1nnn[nH]1)C(=O)O; 1Nal = N[C@@H](Cc1cccc2ccccc12)C(=O)O; 2Nal = N[C@@H](Cc1ccc2ccccc2c1)C(=O)O; Tic = O=C(O)[C@@H]1Cc2ccccc2CN1; Cha = N[C@@H](CC1CCCCC1)C(=O)O; NMeL = CN[C@@H](CC(C)C)C(=O)O; Cbz = O=C(OCc1ccccc1)*; Boc = CC(C)(C)OC(=O)*

Columns and labels:
[1] = biological target: T1, CCK receptors (Cavia porcellus, UniProt Q63931); assay: Radioligand binding ([125I]Bolton-Hunter CCK8) in guinea pig pancreatic membranes
T1 construct: Cortical and pancreatic membranes were prepared as described; from tissue; host or cells: guinea pig pancreas membranes
T1 sequence (Q63931 1-430): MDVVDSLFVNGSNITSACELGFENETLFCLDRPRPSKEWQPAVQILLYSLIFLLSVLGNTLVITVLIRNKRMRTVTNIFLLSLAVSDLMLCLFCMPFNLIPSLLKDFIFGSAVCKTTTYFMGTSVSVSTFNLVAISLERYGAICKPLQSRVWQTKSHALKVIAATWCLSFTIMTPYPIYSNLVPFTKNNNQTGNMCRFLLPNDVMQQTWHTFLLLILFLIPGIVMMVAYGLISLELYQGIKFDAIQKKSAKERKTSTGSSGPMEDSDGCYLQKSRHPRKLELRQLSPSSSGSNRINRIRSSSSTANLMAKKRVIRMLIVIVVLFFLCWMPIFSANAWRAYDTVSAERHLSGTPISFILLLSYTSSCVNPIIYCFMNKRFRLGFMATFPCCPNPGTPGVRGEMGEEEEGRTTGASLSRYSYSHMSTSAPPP
Protocol: EGTA, HEPES, BSA were purchased from Sigma Chemical Co. (St. Louis, MO). […] Male ginea pigs, 250 to 325 g, were obtained from Scientific Small Animal Laboratory and Farm (Arlington Heights, IL). Collangenase, code CLSPA was purchased from Worthington (Frehold, NJ).
The final BSA concentration was 0.1%. The cortical tissues were incubated at 30°C for 150 min. and pancreatic tissues were incubated at 37°C for 150 min. Incubations were terminated by filtration using Skatron Cell Harvester and SS32 microfiber filter mats. […] IC₅₀s were determined from the Hill analysis.

[2] = biological target: T2, cortical CCK receptor (Cavia porcellus, UniProt H0VZC5); assay: Radioligand binding ([125I]Bolton-Hunter CCK8) in guinea pig cerebral cortical membranes; conditions: displacement of [125I]BH-CCK8, cortical membranes, 30°C for 150 min, Hill analysis; read-out: IC₅₀ (nM) cortex
T2 construct: Cortical and pancreatic membranes were prepared as described; from tissue; host or cells: guinea pig cerebral cortex membranes
T2 sequence (H0VZC5 1-426): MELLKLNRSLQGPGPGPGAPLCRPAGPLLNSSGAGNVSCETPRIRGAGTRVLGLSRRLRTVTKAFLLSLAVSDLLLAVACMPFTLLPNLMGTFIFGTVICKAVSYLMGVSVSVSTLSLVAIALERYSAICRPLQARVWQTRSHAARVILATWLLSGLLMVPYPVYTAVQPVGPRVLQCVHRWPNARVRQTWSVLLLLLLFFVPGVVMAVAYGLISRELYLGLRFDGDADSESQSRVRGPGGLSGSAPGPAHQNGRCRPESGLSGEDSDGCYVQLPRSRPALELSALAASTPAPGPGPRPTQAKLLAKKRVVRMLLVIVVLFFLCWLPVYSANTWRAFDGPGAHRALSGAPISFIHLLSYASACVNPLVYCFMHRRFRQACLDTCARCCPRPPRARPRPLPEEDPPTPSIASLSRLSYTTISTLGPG
From the text: Protocol for Radioligand Binding Experiments in Guinea Pig Cerebral Cortical and Pancreatic Membrance Preparations
CCK8 (Asp-Tyr(SO₃H)-Met-Gly-Trp-Met-Asp-Phe-NH₂), bestatin and phosphormaidon were purchased from Peptide International (Louisville, KY). EGTA, HEPES, BSA were purchased from Sigma Chemical Co. (St. Louis, MO). [¹²⁵I]-Bolton-Hunter CCK8 (BH-CCK8) (specific activity, 2200 Ci, mmol) was obtained from New England Nuclear (Boston, MA). Male ginea pigs, 250 to 325 g, were obtained from Scientific Small Animal Laboratory and Farm (Arlington Heights, IL). Collangenase, code CLSPA was purchased from Worthington (Frehold, NJ).
Cortical and pancreatic membranes were prepared as described (Lin and Miller; J. Pharmacol. Exp. Ther. 232, 775-780, 1985). In brief, pancreas and cortex were removed and rinsed with ice-cold saline. Visible fat and connective tissues were removed from the pancreas. Tissues were weighed and homogenized in approximately 25 mL of ice-cold 50 mM Tris-HCl buffer, pH 7.4 at 4°C with a Brinkman Polytron for 30 sec, setting 7. The homogenates were centrifuged for 10 min at 1075 x g and the pellet was discarded. The supernantants were saved and centrifuged at 38,730 x g for 20 min. The resultant pellets were rehomogenized in 25 mL of 50 mM Tris-HCl buffer with a Teflon-glass homogenizer, 5 up and down strokes. The homogenates were centrifuged again at 38,730 x g for 20 min. The pellets were then resuspended in 20 mM HEPES, containing 1 mM EGTA, 118 mM NaCl, 4.7 mM KCl, 5mM MgCl₂, 100 uM bestatin, 3 uM phosphoramidon, pH 7.4 at 22°C with a Teflon-glass homogenizer, 15 up and down strokes. The resuspension volume used for the cortex was 15 mL per g of original wet weight and 60 mL per g for pancreas.
[¹²⁵I]Bolton-Hunter CCK8 and test compounds were diluted with HEPES-EGTA-salt buffer (see above) containing 0.5% bovine serum albumin (BSA). To 1 mL Skatron polystyrene tubes were added 25 uL of test compounds, 25 uL of [¹²⁵I]BH-CCK8 and 200 uL of membrane suspension. The final BSA concentration was 0.1%. The cortical tissues were incubated at 30°C for 150 min. and pancreatic tissues were incubated at 37°C for 150 min. Incubations were terminated by filtration using Skatron Cell Harvester and SS32 microfiber filter mats. The specific binding of [¹²⁵I]BH-CCK8, defined as the difference betwen binding in the absence and presence of 1 uM CCK8, was 85-90% of total binding in cortex and 90-95% in pancreas. IC₅₀s were determined from the Hill analysis.

[3] = biological target: T3, CCK-B receptors on small cell lung cancer cell lines (Homo sapiens, UniProt P32239); assay: Measurement of [Ca++]i changes in NCI-H345 and H209 cell lines (indo-1 fluorescence); format: cell-based; conditions: read-out: Intrinsic Activity Relative to CCK-8
T3 construct: endogenous in cells; host or cells: NCI-H345 and H209 small cell lung cancer cells
T3 sequence (P32239 1-447): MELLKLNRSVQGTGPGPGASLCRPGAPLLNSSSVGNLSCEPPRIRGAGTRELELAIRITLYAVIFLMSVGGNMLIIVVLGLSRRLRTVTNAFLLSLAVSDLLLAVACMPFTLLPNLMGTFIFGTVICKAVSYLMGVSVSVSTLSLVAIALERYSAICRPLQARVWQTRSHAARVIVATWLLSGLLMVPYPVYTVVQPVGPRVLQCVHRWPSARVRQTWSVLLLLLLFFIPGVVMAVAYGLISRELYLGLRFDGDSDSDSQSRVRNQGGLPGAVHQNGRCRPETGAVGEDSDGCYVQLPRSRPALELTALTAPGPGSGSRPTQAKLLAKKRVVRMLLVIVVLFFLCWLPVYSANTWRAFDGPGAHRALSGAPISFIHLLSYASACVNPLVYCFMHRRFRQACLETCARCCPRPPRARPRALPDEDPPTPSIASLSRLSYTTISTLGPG
Protocol: Protocol for Measuring [Ca++]i Changes in NCI-H345 and H209 Cell Lines
Culture conditions were as described (D.G. Yoder, T.W. Moody, Peptides, 8, 103 (1987), except that the medium was modified to RPMI 1640 with 2.5% fetal bovine serum (heat inactivated), 5µg/l sodium selenite, 5 mg/l human transferrin, 5 mg/l insulin, penicillin (100 U/l) and streptomycin (100 µg/l). To measure intracellular Ca²⁺, cells were loaded with 1 µM of indo-1,AM, for 60 min at 37°C. The cells were centrifuged at 750 x g for 5 min and resuspended in 40 mL Buffer F (Dulbecco's phosphate buffered saline containing 0.1% glucose, pH 7.4). The cells were counted then twice washed by centrifugation. The final pellet was resuspended (approximately 1 x 10⁶ cells/mL) in Buffer F. The cells were thermally equilibrated in a thermostated cuvette (37°C) for 2 min prior to base-line fluorescence measurement. Fluorescence measurements were made with an SLM 8000C spectrofluorimeter equipped with magnetic microstirrer and polarizing filters. Measurements with indo-1-loaded cells were obtained at excitation wavelength of 350 nm and emission wavelength of 480 and 405 nM and the time interval for the measurements was 0.5 sec.

[4] = displacement of [125I]BH-CCK8, pancreatic membranes, 37°C for 150 min, Hill analysis, read-out: IC₅₀ (uM) pancreas

Row | Structure (SMILES) | IC50 [1, 4] [µM] | IC50 [2] [nM] | Emax [3] [%] | IC50 [1] [µM]
1 | CCC[C@H]1CCN(C(=O)[C@H](Cc2c[nH]c3ccccc23)NC(=O)OC(C)(C)C)[C@@H]1C(=O)N[C@@H](CC(=O)O)C(=O)N[C@@H](Cc1c[nH]c2ccccc12)C(N)=O [Example 54, Boc-Trp-Tpp-Asp-Trp-NH₂] | 3.7 | 5 | – | –
2 | CC(C)C[C@H](NC(=O)[C@H](Cc1ccc2ccccc2c1)NC(=O)OC(C)(C)C)C(=O)N[C@@H](CC(=O)O)C(=O)N[C@@H](Cc1ccccc1)C(N)=O [Example 50, Boc-β-Nal-Leu-Asp-Phe-NH₂] (Boc-[2Nal]LDF-NH2) | 5 | 27 | – | –
3 | CC(C)C[C@@H](C(=O)N[C@@H](CC(=O)O)C(=O)N[C@@H](Cc1ccccc1)C(N)=O)N(C)C(=O)[C@H](Cc1c[nH]c2ccccc12)NC(=O)OCc1ccccc1 [Example 15, Cbz-Trp-(NMe)Leu-Asp-Phe-NH₂] (Cbz-W[NMeL]DF-NH2) | 1 | 5 | – | –
4 | CCC[C@H]1CCN(C(=O)[C@H](Cc2c[nH]c3ccccc23)NC(=O)OC(C)(C)C)[C@@H]1C(=O)N[C@@H](CC(=O)O)C(=O)N[C@@H](Cc1ccccc1)C(N)=O [Example 47, Boc-Trp-Tpp-Asp-Phe-NH₂] | 89 | 1.2 | – | –
5 | CCC[C@H]1CCN(C(=O)[C@@H]2Cc3c[nH]c4cccc(c34)CC(=O)N2)[C@@H]1C(=O)N[C@@H](CC(=O)O)C(=O)N[C@@H](Cc1ccc2ccccc2c1)C(N)=O [Example 58, Ctp-Tpp-Asp-β-Nal-NH₂] | 11 | 1.9 | 100 | –
6 | CC(C)C[C@H](NC(=O)[C@@H]1Cc2c[nH]c3cccc(c23)CC(=O)N1)C(=O)N[C@@H](CC(=O)O)C(=O)N(C)[C@@H](Cc1ccccc1)C(N)=O [Example 6, Ctp-Leu-Asp-(NMe)Phe-NH₂] | – | – | 96 | –
7 | CCC[C@H]1CCN(C(=O)[C@@H]2Cc3c[nH]c4cccc(c34)CC(=O)N2)[C@@H]1C(=O)N[C@@H](CC(=O)O)C(=O)N(C)[C@@H](Cc1ccccc1)C(N)=O [Example 52, Ctp-Tpp-Asp-(NMe)Phe-NH₂] | 3.5 | 2.6 | 100 | –
8 | CC(C)C[C@H](NC(=O)[C@@H]1Cc2c[nH]c3cccc(c23)CC(=O)N1)C(=O)N[C@@H](CC(=O)O)C(=O)N[C@@H](Cc1ccccc1)C(N)=O [Example 1, CTP-Leu-Asp-Phe-NH₂] | 2.7 | 2.5 | – | –
9 | CC(C)C[C@H](NC(=O)[C@H](Cc1c[nH]c2ccccc12)NC(=O)OC(C)(C)C)C(=O)N[C@@H](CC(=O)O)C(=O)N1Cc2ccccc2C[C@H]1C(N)=O [Example 2, Boc-Trp-Leu-Asp-Tiq-NH₂] (Boc-WLD[Tic]-NH2) | – | 37 | – | 19
10 | CC(C)C[C@H](NC(=O)[C@H](Cc1c[nH]c2ccccc12)NC(=O)OC(C)(C)C)C(=O)N[C@@H](CC(=O)O)C(=O)N[C@@H](CC1CCCCC1)C(N)=O [Example 43, Boc-Trp-Leu-Asp-Cha-NH₂] (Boc-WLD[Cha]-NH2) | 11 | 170 | – | –

Second part, led by results:

Row | IC50 [1, 4] [µM] | IC50 [2] [nM] | Emax [3] [%] | Structure (SMILES) | IC50 [1] [µM]
11 | 4.3 | 0.9 | – | CCC[C@H]1CCN(C(=O)[C@@H]2Cc3c[nH]c4cccc(c34)CC(=O)N2)[C@@H]1C(=O)N[C@@H](CC(=O)O)C(=O)N[C@@H](CC1CCCCC1)C(N)=O [Example 59, Ctp-Tpp-Asp-Cha-NH₂] | –
12 | – | – | 104 | CC(C)C[C@H](NC(=O)[C@H](Cc1c[nH]c2ccccc12)NC(=O)OC(C)(C)C)C(=O)N[C@@H](CC(=O)O)C(=O)N[C@@H](Cc1ccc2ccccc2c1)C(N)=O [Example 44, Boc-Trp-Leu-Asp-β-Nal-NH₂] (Boc-WLD[2Nal]-NH2) | –
13 | 1.8 | 54 | – | CC(C)C[C@H](NC(=O)[C@H](Cc1c[nH]c2ccccc12)NC(=O)OC(C)(C)C)C(=O)N[C@@H](CC(=O)O)C(=O)NC(=Cc1ccccc1)C(N)=O [Example 19, Boc-Trp-Leu-Asp-(dehydro)Phe-NH₂] | –
14 | > 1 | 13 | – | CC(C)C[C@H](NC(=O)[C@H](Cc1c[nH]c2ccccc12)NC(=O)OC(C)(C)C)C(=O)N[C@@H](Cc1nnn[nH]1)C(=O)N[C@@H](Cc1ccccc1)C(N)=O [Example 9, Boc-Trp-Leu-[β-1(2)H-tetrazol-5-yl]-L-alanyl-Phe-NH₂] (Boc-WL[Ala(1H-tetrazol-5-yl)]F-NH2) | –
15 | 3.8 | 13 | – | CC(C)C[C@H](NC(=O)[C@H](Cc1c[nH]c2ccccc12)NC(=O)OC(C)(C)C)C(=O)N[C@@H](CC(=O)O)C(=O)N[C@@H](Cc1c[nH]c2ccccc12)C(N)=O [Example 42, Boc-Trp-Leu-Asp-Trp-NH₂] (Boc-WLDW-NH2) | –
16 | > 10 | 16 | – | CC(C)C[C@H](NC(=O)[C@@H]1Cc2c[nH]c3cccc(c23)CC(=O)N1)C(=O)N[C@@H](CC(=O)O)C(=O)NC(=Cc1ccccc1)C(N)=O [Example 23, Ctp-Leu-Asp-(dehydro)Phe-NH₂] | –
17 | 1.7 | 12 | – | CC(C)C[C@H](NC(=O)[C@H](Cc1c[nH]c2ccccc12)NC(=O)OC(C)(C)C)C(=O)N[C@@H](CC(=O)O)C(=O)N[C@@H](Cc1cccc2ccccc12)C(N)=O [Example 45, Boc-Trp-Leu-Asp-α-Nal-NH₂] (Boc-WLD[1Nal]-NH2) | –
18 | 1.4 | 0.4 | 109 | CCC[C@H]1CCN(C(=O)[C@@H]2Cc3c[nH]c4cccc(c34)CC(=O)N2)[C@@H]1C(=O)N[C@@H](CC(=O)O)C(=O)N[C@@H](Cc1cccc2ccccc12)C(N)=O [Example 57, Ctp-Tpp-Asp-α-Nal-NH₂] | –
